The source of these data is paper doi:10.1101/2024.12.17.628051v1 (biorxiv, 2024).

Each structure is given as a SMILES string. Read-outs that look alike come from different tables or passages of the source.

For experiment [1], the target named is T1, STRAD/MO25 dimer (His-STRAD C160 and MO25) (Homo sapiens, UniProt Q7RTN6).
T1 sequence (Q7RTN6 59-431): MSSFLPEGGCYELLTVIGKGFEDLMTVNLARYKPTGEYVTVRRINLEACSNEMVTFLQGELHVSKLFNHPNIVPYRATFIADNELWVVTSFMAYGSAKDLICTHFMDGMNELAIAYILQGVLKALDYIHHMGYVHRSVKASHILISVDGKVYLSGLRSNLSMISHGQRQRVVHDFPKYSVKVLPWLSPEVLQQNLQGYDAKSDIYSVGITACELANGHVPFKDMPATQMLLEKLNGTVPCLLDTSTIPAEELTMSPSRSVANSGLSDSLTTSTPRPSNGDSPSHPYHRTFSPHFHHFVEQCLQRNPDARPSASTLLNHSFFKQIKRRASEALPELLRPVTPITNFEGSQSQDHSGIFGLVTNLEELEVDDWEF
T1 sequence (Q9Y376 1-341 partner): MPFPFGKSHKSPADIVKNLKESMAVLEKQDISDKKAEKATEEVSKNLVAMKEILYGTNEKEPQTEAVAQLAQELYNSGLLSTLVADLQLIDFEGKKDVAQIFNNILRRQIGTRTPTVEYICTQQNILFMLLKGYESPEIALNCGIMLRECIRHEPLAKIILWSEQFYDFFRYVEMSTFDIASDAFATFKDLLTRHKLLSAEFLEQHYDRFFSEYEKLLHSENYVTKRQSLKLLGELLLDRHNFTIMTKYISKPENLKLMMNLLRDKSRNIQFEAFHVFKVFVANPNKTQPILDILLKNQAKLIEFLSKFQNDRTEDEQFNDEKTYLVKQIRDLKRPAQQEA
As to the kind of experiment: biochemical. To be noted: read-out: residual occupancy (Average).

Experiment [2] addresses T1, STRAD/MO25 dimer (His-STRAD C160 and MO25). As to the kind of experiment: TNP-ATP fluorescence displacement. The format is binding. To be noted: 50 μM compound, 5 μM STRAD-MO25, 5 μM TNP-ATP, pH 7.5, room temperature.
Experiment [3] has the same target. As to the kind of experiment: biochemical. To be noted: read-out: residual occupancy (Average). This is another data set of the same source.
Experiment [4] has the same target. As to the kind of experiment: TNP-ATP fluorescence displacement. It is filed as binding.
For experiment [5], the target named is T2, LKB1/STRAD/MO25 trimer (Homo sapiens, UniProt Q7RTN6).
T2 sequence (Q7RTN6 1-431): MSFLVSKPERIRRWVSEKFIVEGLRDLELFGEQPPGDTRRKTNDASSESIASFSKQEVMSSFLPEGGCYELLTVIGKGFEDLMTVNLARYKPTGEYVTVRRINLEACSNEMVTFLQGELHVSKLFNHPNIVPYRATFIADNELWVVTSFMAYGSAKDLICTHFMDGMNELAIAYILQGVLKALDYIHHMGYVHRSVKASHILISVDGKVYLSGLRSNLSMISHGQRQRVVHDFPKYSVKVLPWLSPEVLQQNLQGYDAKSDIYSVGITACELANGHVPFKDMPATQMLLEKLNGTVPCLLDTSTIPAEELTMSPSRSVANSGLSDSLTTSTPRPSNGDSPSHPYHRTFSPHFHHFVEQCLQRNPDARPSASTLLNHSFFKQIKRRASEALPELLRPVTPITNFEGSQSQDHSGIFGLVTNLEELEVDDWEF
T2 sequence (Q15831 1-430 partner): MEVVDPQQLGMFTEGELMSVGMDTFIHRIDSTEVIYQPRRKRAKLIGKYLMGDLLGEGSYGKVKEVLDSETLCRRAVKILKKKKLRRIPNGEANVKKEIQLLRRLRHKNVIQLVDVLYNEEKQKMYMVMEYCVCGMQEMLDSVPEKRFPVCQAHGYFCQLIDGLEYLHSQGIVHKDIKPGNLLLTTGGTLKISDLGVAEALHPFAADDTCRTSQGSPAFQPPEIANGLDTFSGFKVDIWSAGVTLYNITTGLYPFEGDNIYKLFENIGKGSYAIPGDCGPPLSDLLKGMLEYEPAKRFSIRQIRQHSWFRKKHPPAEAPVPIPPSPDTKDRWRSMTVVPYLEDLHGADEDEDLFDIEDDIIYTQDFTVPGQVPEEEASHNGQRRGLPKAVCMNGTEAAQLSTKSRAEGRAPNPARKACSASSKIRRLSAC
T2 sequence (Q9Y376 1-341 partner): T1 sequence (Q9Y376 1-341 partner)
As to the kind of experiment: Caliper mobility-shift kinase assay, Fam-LKBtide. It is filed as biochemical.

As for `N#CC(C#N)=Cc1ccc(O)c(O)c1` [AG-18], the remaining activity at 50 µM in experiment [1] is 54%.
`COc1cc(N2CCC(N)CC2)ccc1Nc1ncc(Cl)c(-c2c[nH]c3ccccc23)n1` [AZD3463]: the “Residual Occupancy (Average) at 50 μM” value in experiment [2] was found to be 0.33 ± 0.02 fraction.
Regarding `CCOc1cc(C(=O)N2CCC(N3CCN(C)CC3)CC2)ccc1Nc1ncc2c(n1)N(C1CCCC1)c1ccccc1C(=O)N2C` [ERK5-IN-1], the “Residual Occupancy (Average) at 50 μM” value in experiment [2] stood at 0.46 ± 0.02 fraction.
Regarding `COc1cc(Nc2ncc(F)c(Nc3ccc4c(n3)N(COP(=O)(O)O)C(=O)C(C)(C)O4)n2)cc(OC)c1OC` [Fostamatinib (R788)], in experiment [3], the remaining activity at 50 µM stood at 52%.
For `Cc1[nH]c2ccccc2c1C1=C(NCCc2ccc(F)cc2)C(=O)N(C)C1=O` [IM-12], the remaining activity at 50 µM in experiment [3] amounted to 58%.
For `Cc1cc(Nc2ncc(Cl)c(Nc3ccccc3S(=O)(=O)C(C)C)n2)c(OC(C)C)cc1C1CCNCC1` [LDK378], the “Residual Occupancy (Average) at 50 μM” value in experiment [2] came out at 0.40 ± 0.03 fraction.
On to `Nc1ncnc2c1c(-c1cccc(OCc3ccccc3)c1)cn2[C@H]1C[C@@H](CN2CCC2)C1` [NVP-AEW541], for which the remaining activity at 50 µM in experiment [3] came to 19%. Moreover, the IC50 (as a rule, the concentration that gives 50% inhibition) in experiment [4] is 2400 nM.
`Cc1c[nH]c2nc(Nc3ccc(N4CCN(C)CC4)c(F)c3)nc(-c3cccc(CC#N)c3)c12` [SGI-7079]: the remaining activity at 50 µM in experiment [3] worked out at 56%.
`N#C/C(=C(/N)Sc1ccc(N)cc1)c1ccccc1C(F)(F)F` [SL-327]: the remaining activity at 50 µM in experiment [3] came out at 54%.
In the case of `CCOP(=O)(COc1cccc(-c2cn([C@H]3C[C@@H](CN4CCC4)C3)c3ncnc(N)c23)c1)OCC` [SMALS-323], the 50% effective concentration (EC50) (in general, the midpoint of the concentration-response curve) in experiment [5] was 480 nM.
Consider `CCOP(C)(=O)COc1cccc(-c2cn([C@H]3C[C@@H](CN4CCC4)C3)c3ncnc(N)c23)c1` (stereo partly shown) [SMALS-357], for which, in experiment [5], the EC50 was determined as 5200 nM.
Take `CN1CCN(CCOc2cc(OC3CCOCC3)c3c(Nc4c(Cl)ccc5c4OCO5)ncnc3c2)CC1` [Saracatinib]: in experiment [2], the “Residual Occupancy (Average) at 50 μM” value is listed as 0.36 ± 0.02 fraction.
